pEC50: −log10 of the molar value.
Target: T1, Olfr1377 (Mus musculus, UniProt B2RQ46)
T1 sequence (B2RQ46 1-307): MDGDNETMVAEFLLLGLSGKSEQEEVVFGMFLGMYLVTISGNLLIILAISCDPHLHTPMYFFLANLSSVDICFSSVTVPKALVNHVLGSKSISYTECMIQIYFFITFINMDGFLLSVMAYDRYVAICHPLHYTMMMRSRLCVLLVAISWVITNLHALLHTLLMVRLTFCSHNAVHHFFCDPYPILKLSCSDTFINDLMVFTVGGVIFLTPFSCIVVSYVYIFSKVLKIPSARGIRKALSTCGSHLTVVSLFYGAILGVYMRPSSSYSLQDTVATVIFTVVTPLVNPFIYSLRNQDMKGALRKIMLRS
Experiment: GloSensor cAMP luminescence in Hana3A cells, vapor-phase odorant
Format: cell-based

pEC50: 3.79
SMILES: CC(=O)c1ccccc1 [acetophenone]
